From US12295959B2 (priority 2021, dated 2025) come the findings set out here.

The target of assay [1] is T1, 5-HT2C edited (accession number AAF35842.1) (Homo sapiens, UniProt P28335, I156V/I160V/N158S). Put plainly: biochemical. The class given is binding.
Target sequence in this assay (P28335 33-458 I156V/N158S/I160V limits assumed): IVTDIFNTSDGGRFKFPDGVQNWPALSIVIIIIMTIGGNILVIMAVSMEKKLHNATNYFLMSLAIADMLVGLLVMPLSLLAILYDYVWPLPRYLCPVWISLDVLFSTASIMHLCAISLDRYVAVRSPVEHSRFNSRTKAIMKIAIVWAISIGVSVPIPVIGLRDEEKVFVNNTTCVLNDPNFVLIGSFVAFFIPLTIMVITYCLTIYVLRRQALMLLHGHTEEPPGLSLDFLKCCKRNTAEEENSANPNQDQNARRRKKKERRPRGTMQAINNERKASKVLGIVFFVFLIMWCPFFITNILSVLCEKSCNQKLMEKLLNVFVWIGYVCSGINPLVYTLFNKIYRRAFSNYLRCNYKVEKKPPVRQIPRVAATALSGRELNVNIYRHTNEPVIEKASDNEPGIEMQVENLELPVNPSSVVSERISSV
For assay [2], the target named is T1, 5-HT2C edited (accession number AAF35842.1). Put plainly: cell-based.
Target sequence in this assay (P28335 whole entry I156V/N158S/I160V, looked up): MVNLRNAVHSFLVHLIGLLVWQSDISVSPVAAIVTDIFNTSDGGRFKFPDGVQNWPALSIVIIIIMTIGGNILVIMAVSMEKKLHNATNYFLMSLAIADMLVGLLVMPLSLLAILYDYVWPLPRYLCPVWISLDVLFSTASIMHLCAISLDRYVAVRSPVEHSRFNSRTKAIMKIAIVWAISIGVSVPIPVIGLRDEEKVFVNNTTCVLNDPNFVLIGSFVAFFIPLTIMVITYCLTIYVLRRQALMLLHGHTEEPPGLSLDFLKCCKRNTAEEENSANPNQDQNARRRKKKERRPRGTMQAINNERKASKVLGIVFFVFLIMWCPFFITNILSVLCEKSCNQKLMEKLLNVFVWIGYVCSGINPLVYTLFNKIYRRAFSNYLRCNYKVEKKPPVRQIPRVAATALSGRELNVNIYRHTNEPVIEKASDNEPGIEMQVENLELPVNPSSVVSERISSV
The target of another assay is 5-HT2C (Homo sapiens, UniProt P28335, I156V/I160V/N158S). Put plainly: cell-based.
Chain of 5-HT2C (P28335 33-458 I156V/N158S/I160V limits assumed): as the sequence (P28335 33-458 I156V/N158S/I160V limits assumed) above

The term IC50 denotes the concentration at which inhibition is half-maximal. A low value points to greater potency in that assay. In general, EC50 refers to the concentration at which the effect is half-maximal. A lower EC50 goes with greater potency. For `c1ccc(Oc2ccc3c4c([nH]c3c2)CCNCC4)cc1` [Compound 11, 8-phenoxy-1,2,3,4,5,6-hexahydroazepino[4,5-b]indole], the IC50 is 0.101 to 1 µM in assay [1] and above 10 µM against 5-HT2C. This molecule showed an EC50 in assay [2] of 0.101 to 1 µM.
In the case of `Fc1ccc(Oc2cccc3[nH]c4c(c23)CCNCC4)cc1` [Compound 21, 10-(4-fluorophenoxy)-1,2,3,4,5,6-hexahydroazepino[4,5-b]indole], the IC50 in assay [1] is below 0.01 µM. In assay [2], this molecule showed an EC50 below 0.01 µM.
`Cn1c2c(c3ccc(OCc4ccc(F)cc4)cc31)CCNCC2` [Compound 9, 8-((4-fluorobenzyl)oxy)-6-methyl-1,2,3,4,5,6-hexahydroazepino[4,5-b]indole] registered an IC50 in assay [1] of 0.101 to 1 µM. In assay [2], this molecule displayed an EC50 of 1 to 10 µM.
In the case of `CN1CCc2[nH]c3cc(Oc4ccccc4)ccc3c2CC1` [Compound 12, 3-methyl-8-phenoxy-1,2,3,4,5,6-hexahydroazepino[4,5-b]indole], the 50% inhibitory concentration (IC50) is 0.101 to 1 µM in assay [1] and above 10 µM against 5-HT2C. In assay [2], this molecule displayed an EC50 of 1 to 10 µM.
As for `c1ccc(Oc2cccc3[nH]c4c(c23)CCNCC4)cc1` [Compound 20, 10-phenoxy-1,2,3,4,5,6-hexahydroazepino[4,5-b]indole], the IC50 in assay [1] is below 0.01 µM. This molecule had an EC50 in assay [2] below 0.01 µM.
In assay [1], `Cn1c2c(c3ccc(Oc4ccc(F)cc4)cc31)CCNCC2` [Compound 17, 8-(4-fluorophenoxy)-6-methyl-1,2,3,4,5,6-hexahydroazepino[4,5-b]indole] had an IC50 of 0.01 to 0.1 µM. The EC50 in assay [2] lay in the range of 1 to 10 µM.
For the molecule `c1ccc(COc2cccc3c4c([nH]c23)CCNCC4)cc1` [Compound 27, 7-(benzyloxy)-1,2,3,4,5,6-hexahydroazepino[4,5-b]indole], the IC50 in assay [1] lay in the range of 0.101 to 1 µM. The molecule further registered an EC50 in assay [2] of 0.101 to 1 µM.
Regarding `Fc1ccc(COc2ccc3c4c([nH]c3c2)CCNCC4)cc1` [Compound 7, 8-((4-fluorobenzyl)oxy)~1,2,3,4,5,6-hexahydroazepino[4,5-b]indole], the IC50 was 0.101 to 1 µM in assay [1] and above 10 µM against 5-HT2C. In assay [2], this molecule returned a half-maximal effective concentration (EC50) of 0.101 to 1 µM.
`CN1CCc2[nH]c3c(OCc4ccccc4)cccc3c2CC1` [Compound 28, 7-(benzyloxy)-3-methyl-1,2,3,4,5,6-hexahydroazepino[4,5-b]indole]: the half-maximal inhibitory concentration (IC50) (in assay [1]; at 5-HT2C) was 0.101 to 1 µM in each case. This molecule came in with an EC50 in assay [2] of 0.101 to 1 µM.
As for `Cn1c2c(c3ccc(Oc4ccccc4)cc31)CCNCC2` [Compound 13, 6-methyl-8-phenoxy-1,2,3,4,5,6-hexahydroazepino[4,5-b]indole], in assay [1], the IC50 was in the range of 0.101 to 1 µM. In addition, the EC50 in assay [2] was 1 to 10 µM.
Turning to `Cn1c2c(c3ccc(OCc4ccccc4)cc31)CCNCC2` [Compound 5, 8-(benzyloxy)-6-methyl-1,2,3,4,5,6-hexahydroazepino[4,5-b]indole], the concentration for half-maximal inhibition (IC50) in assay [1] is 0.101 to 1 µM; against 5-HT2C it was above 10 µM. For the same molecule, the 50% effective concentration (EC50) in assay [2] was in the range of 1 to 10 µM.
`CN1CCc2c(n(C)c3cc(OCc4ccccc4)ccc23)CC1` [Compound 6, 8-(benzyloxy)-3,6-dimethyl-1,2,3,4,5,6-hexahydroazepino[4,5-b]indole]: in assay [1], the IC50 fell in the range of 0.101 to 1 µM. In assay [2], this molecule gave an EC50 of 1 to 10 µM.
For the molecule `CN1CCc2[nH]c3c(Br)ccc(OCc4ccccc4)c3c2CC1` [Compound 29, 10-(benzyloxy)-7-bromo-3-methyl-1,2,3,4,5,6-hexahydroazepino[4,5-b]indole], the values for the IC50 (in assay [1]; on 5-HT2C) were below 0.01 µM and 0.01 to 0.1 µM, respectively. For the same molecule, the EC50 in assay [2] is above 10 µM.
Turning to `c1ccc(COc2ccc3[nH]c4c(c3c2)CCNCC4)cc1` [Compound 25, 9-(benzyloxy)-1,2,3,4,5,6-hexahydroazepino[4,5-b]indole], the IC50 is 0.01 to 0.1 µM in assay [1] and above 10 µM on 5-HT2C. In assay [2], this molecule came in with a concentration for a half-maximal effect (EC50) of 0.01 to 0.1 µM.
With `CN1CCc2[nH]c3cc(OCc4ccc(F)cc4)ccc3c2CC1` [Compound 8, 8-((4-fluorobenzyl)oxy)-3-methyl-1,2,3,4,5,6-hexahydroazepino[4,5-b]indole], the IC50 fell in the range of 0.101 to 1 µM in assay [1] and 1 to 10 µM against 5-HT2C. In assay [2], this molecule yielded an EC50 of 1 to 10 µM.
Molecule `CN1CCc2[nH]c3cc(OCc4ccccc4)ccc3c2CC1` [Compound 1, 8-(benzyloxy)-3-methyl-1,2,3,4,5,6-hexahydroazepino[4,5-b]indole] showed an IC50 in assay [1] of 0.101 to 1 µM. In assay [2], the EC50 lay within 1 to 10 µM.
Regarding `CN1CCc2[nH]c3ccc(OCc4ccccc4)cc3c2CC1` [Compound 26, 9-(benzyloxy)-3-methyl-1,2,3,4,5,6-hexahydroazepino[4,5-b]indole], the IC50 (in assay [1]; on 5-HT2C) was 0.101 to 1 µM in each case. In assay [2], the EC50 lay within 0.101 to 1 µM.
In assay [1], `c1ccc(COc2cccc3[nH]c4c(c23)CCNCC4)cc1` [Compound 4, 10-(benzyloxy)-1,2,3,4,5,6-hexahydroazepino[4,5-b]indole] came in with an IC50 below 0.01 µM. The EC50 in assay [2] is below 0.01 µM.
With `CN1CCc2c(n(C)c3cccc(Oc4ccc(F)cc4)c23)CC1` [Compound 24, 10-(4-fluorophenoxy)-3,6-dimethyl-1,2,3,4,5,6-hexahydroazepino[4,5-b]indole], the IC50 (in assay [1]; against 5-HT2C) was 0.01 to 0.1 µM in each case. In addition, the EC50 in assay [2] was in the range of 0.101 to 1 µM.
With `CN1CCc2[nH]c3cccc(OCc4ccccc4)c3c2CC1` [Compound 2, 10-(benzyloxy)-3-methyl-1,2,3,4,5,6-hexahydroazepino[4,5-b]indole], the IC50 in assay [1] is below 0.01 µM; at 5-HT2C, 0.01 to 0.1 µM. The molecule also returned an EC50 in assay [2] of 0.01 to 0.1 µM.
In the case of `CN1CCc2c(n(C)c3cc(OCc4ccc(F)cc4)ccc23)CC1` [Compound 10, 8-((4-fluorobenzyl)oxy)-3,6-dimethyl-1,2,3,4,5,6-hexahydroazepino[4,5-b]indole], the half-inhibitory concentration (IC50) in assay [1] was 0.101 to 1 µM; at 5-HT2C, 1 to 10 µM. In assay [2], this molecule displayed an EC50 of 1 to 10 µM.
With `c1ccc(COc2ccc3c4c([nH]c3c2)CCNCC4)cc1` [Compound 3, 8-(benzyloxy)-1,2,3,4,5,6-hexahydroazepino[4,5-b]indole], the IC50 in assay [1] lay in the range of 0.101 to 1 µM. This molecule gave an EC50 in assay [2] of 0.101 to 1 µM.
In the case of `CN1CCc2[nH]c3cc(Oc4ccc(F)cc4)ccc3c2CC1` [Compound 16, 8-(4-fluorophenoxy)-3-methyl-1,2,3,4,5,6-hexahydroazepino[4,5-b]indole], the IC50 in assay [1] was 0.101 to 1 µM; against 5-HT2C it was above 10 µM. For the same molecule, the EC50 in assay [2] lay within 1 to 10 µM.
The matching figures for `CN1CCc2c(n(C)c3cc(Oc4ccccc4)ccc23)CC1` [Compound 14, 3,6-dimethyl-8-phenoxy-1,2,3,4,5,6-hexahydroazepino[4,5-b]indole]: 0.101 to 1 µM, above 10 µM and 0.101 to 1 µM.
For `CN1CCc2[nH]c3cccc(Oc4ccc(F)cc4)c3c2CC1` [Compound 22, 10-(4-fluorophenoxy)-3-methyl-1,2,3,4,5,6-hexahydroazepino[4,5-b]indole], the IC50 was 0.01 to 0.1 µM in assay [1] and above 10 µM at 5-HT2C. Further, in assay [2], the EC50 was below 0.01 µM.
In assay [1], `Cn1c2c(c3c(Oc4ccc(F)cc4)cccc31)CCNCC2` [Compound 23, 10-(4-fluorophenoxy)-6-methyl-1,2,3,4,5,6-hexahydroazepino[4,5-b]indole] returned an IC50 of 0.01 to 0.1 µM. Also, the EC50 in assay [2] lay in the range of 0.101 to 1 µM.
The like results for `Fc1ccc(Oc2ccc3c4c([nH]c3c2)CCNCC4)cc1` [Compound 15, 8-(4-fluorophenoxy)-1,2,3,4,5,6-hexahydroazepino[4,5-b]indole] were, in that order, 0.101 to 1 µM and 0.101 to 1 µM.
The matching figures for `Cn1c2c(c3c(OCc4ccccc4)cccc31)CCNCC2` [Compound 19, 10-(benzyloxy)-6-methyl-1,2,3,4,5,6-hexahydroazepino[4,5-b]indole]: 0.01 to 0.1 µM and 0.01 to 0.1 µM.
On to `CN1CCc2c(n(C)c3cc(Oc4ccc(F)cc4)ccc23)CC1` [Compound 18, 8-(4-fluorophenoxy)-3,6-dimethyl-1,2,3,4,5,6-hexahydroazepino[4,5-b]indole], for which the IC50 in assay [1] was in the range of 0.101 to 1 µM; against 5-HT2C, 1 to 10 µM. In assay [2], this molecule had an EC50 of 0.101 to 1 µM.
